Experimental data: patent US8461171B2, “Hybrid opioid compounds and compositions” (QRxPHARMA Ltd., priority 2010, dated 2013)

How the values were obtained:
Type in all cases: in vivo
CD1 mice [1] = assay: Oral antinociception in CD1 mice (tail flick), morphine/oxycodone alone, combined or as prodrugs; conditions: for oral antinociceptive activity (in words): CD1 mice
CD1 mice [2] = assay: 24-hour tolerance study after icv administration in CD1 mice; conditions: for MPE still present after 24 hours: 24 hours after icv administration
CD1 mice [3] = assay: Behavioral observations after icv administration
Description: These curves enabled the determination of ED50 values. […] Some behavioral observations are also reported.
This behavior was not observed 10 minutes post injection. […] The animals were active for about two hours. After 24 hours, the animals maintained about 20% MPE.

CD1 mice [4] = assay: Intracerebroventricular (icv) antinociceptive activity in CD1 mice; conditions: for Icv ED50 values: CD1 mice, confidence range in brackets

Compound | oral antinociceptive activity (in words) (CD1 mice [1]; oral) | 24-h Tolerance Study, outcome (CD1 mice [2]; icv) | 24-h Tolerance Study, Day 1 (CD1 mice [2]; icv, Day 1) | 24-h Tolerance Study, Day 2 (CD1 mice [2]; icv, Day 2) | peak time (pt), time to maximum effect (CD1 mice [4]) | Icv ED50 values (CD1 mice [4]) | MPE still present after 24 hours (CD1 mice [2]) | also measured
COc1ccc2c3c1O[C@H]1C(=NOC(=O)O[C@H]4C=CC5C6Cc7ccc(O)c8c7[C@@]5(CCN6C)[C@H]4O8)CC[C@@]4(O)C(C2)N(C)CC[C@]314 (stereo partly shown) [MLN II-45] | the same activity as when oxycodone and morphine are administered together in a 1:1 ratio |  |  |  |  |  |  | 
CN1CC[C@]23c4c5ccc(O)c4O[C@H]2[C@@H](NC(=O)COCCOCc2cn(CCOCCOCC(=O)N[C@@H]4CC[C@@]6(O)C7Cc8ccc(O)c9c8[C@@]6(CCN7C)[C@H]4O9)nn2)CC[C@@]3(O)C1C5 [MLN II-120] |  | No tolerance | 95.65 ± 4.65 | 91.38 ± 13.08 | 10 min | 0.571 nmol/mouse (0.423-0.770) |  | animals showing barrel rolling and out stretched limbs (CD1 mice [3]; with 2 minutes of icv injection, not observed 10 minutes post injection): about 50%
CN1CC[C@]23c4c5ccc(O)c4O[C@H]2[C@@H](NC(=O)COCCOCCn2cc(COCC(=O)N[C@H]4CC[C@@]6(O)C7Cc8ccc(O)c9c8[C@@]6(CCN7C)[C@H]4O9)nn2)CC[C@@]3(O)C1C5 [MLN II-83] |  | seems to induce some tolerance | 67.95 ± 13.62 | 48.35 ± 15.68 | 20 min | 0.190 nmol/mouse (0.065-0.558) | 20 ± 10 % MPE | 
COc1ccc2c3c1O[C@H]1/C(=N/OCC(=O)O[C@H]4C=CC5C6Cc7ccc(O)c8c7[C@@]5(CCN6C)[C@H]4O8)CC[C@@]4(O)C(C2)N(C)CC[C@]314 (stereo partly shown) [MLN II-31] | weak antinociceptive activity |  |  |  |  |  |  | maximum antinociception (CD1 mice [1]; 10 mg/kg, 4 hours after oral administration): 25%; antinociceptive activity (CD1 mice [1]; oral, measured from 15 min to 24 hours): 7-20 % of MPE
CN1CC[C@]23c4c5ccc(O)c4O[C@H]2[C@@H](O)C=C[C@H]3[C@H]1C5 [Morphine, reference compound] |  |  |  |  | 10 min | 2.68 nmol/mouse |  | peak time [pt] (CD1 mice [4]): 10 ′
CN1CC[C@]23c4c5ccc(O)c4O[C@H]2[C@@H](NC(=O)COCCOCCOCc2cn(CCOCCOCC(=O)N[C@H]4CC[C@@]6(O)C7Cc8ccc(O)c9c8[C@@]6(CCN7C)[C@H]4O9)nn2)CC[C@@]3(O)C1C5 [MLN II-121] |  |  |  |  | 10 min | 0.272 nmol/mouse (0.164-0.453) | about 20 % MPE | MPE still present after 24 hours (CD1 mice [2]; listed as MLN II- 121): 23.06 ± 4.30 % MPE; 48 hour tolerance test, outcome (CD1 mice [2]; icv, 48 hour test): No tolerance; 48 hour tolerance test, Day 1 (CD1 mice [2]; icv, 48 hour test, Day 1): 90.00 ± 10.69; 48 hour tolerance test, Day 2 (CD1 mice [2]; icv, 48 hour test, Day 2): 80.41 ± 12.06; behavioral observations (CD1 mice [3]; after icv administration): pacing and had straub tails; time the animals were active (CD1 mice [3]; after icv administration): about two
